From patent publication US8143263B2, “Therapeutic agents” (Astrazeneca AB, priority 2008, dated 2012)

target: T1, recombinant human pancreatic GLK (Homo sapiens, UniProt P35557); assay: biochemical
T1 sequence (P35557 1-465): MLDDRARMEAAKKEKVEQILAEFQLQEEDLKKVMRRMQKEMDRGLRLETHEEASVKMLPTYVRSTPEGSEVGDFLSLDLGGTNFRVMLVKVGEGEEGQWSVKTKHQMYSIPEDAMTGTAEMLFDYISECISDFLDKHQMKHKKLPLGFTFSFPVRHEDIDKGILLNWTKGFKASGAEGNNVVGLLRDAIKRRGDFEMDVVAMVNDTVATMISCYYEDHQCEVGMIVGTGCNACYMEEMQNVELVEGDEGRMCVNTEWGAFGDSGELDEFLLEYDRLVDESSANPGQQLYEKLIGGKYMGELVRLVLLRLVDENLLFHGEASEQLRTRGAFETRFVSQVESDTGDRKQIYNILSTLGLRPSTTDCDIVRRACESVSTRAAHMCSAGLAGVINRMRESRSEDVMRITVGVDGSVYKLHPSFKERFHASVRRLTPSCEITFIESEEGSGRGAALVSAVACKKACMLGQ

In order of rising EC50:
1. N#Cc1cccc(Cl)c1-n1ncc2c(O[C@@H](CN3CC(O)C3)C(=O)Nc3ccc(F)cn3)ncnc21 [Example 242, (2S)-2-[1-(2-chloro-6-cyano-phenyl)pyrazolo[3,4-d]pyrimidin-4-yl]oxy-N-(5-fluoro-2-pyridyl)-3-(3-hydroxyazetidin-1-yl)propanamide]  220 nM
2. C[C@H](CO)OC[C@H](Oc1ncnc2c1cnn2-c1c(Cl)cccc1C#N)C(=O)Nc1ccc(F)cn1 [Example 246, (2S)-2-[1-(2-chloro-6-cyano-phenyl)pyrazolo[3,4-d]pyrimidin-4-yl]oxy-N-(5-fluoro-2-pyridyl)-3-[(1R)-2-hydroxy-1-methyl-ethoxy]propanamide]  220 nM
3. O=C(Nc1ccccn1)[C@H](COCCO)Oc1ncnc2c1cnn2-c1c(Cl)cccc1Cl [Example 250, (2S)-2-[1-(2,6-dichlorophenyl)pyrazolo[3,4-d]pyrimidin-4-yl]oxy-3-(2-hydroxyethoxy)-N-(2-pyridyl)propanamide]  230 nM
4. O=C(Nc1ccc(F)cn1)[C@H](COCCO)Oc1ncnc2c1cnn2-c1c(F)cccc1Cl [Example 244, (2S)-2-[1-(2-chloro-6-fluoro-phenyl)pyrazolo[3,4-d]pyrimidin-4-yl]oxy-N-(5-fluoro-2-pyridyl)-3-(2-hydroxyethoxy)propanamide]  330 nM
5. C[C@H](CO)OC[C@H](Oc1ncnc2c1cnn2-c1c(Cl)cccc1C#N)C(=O)Nc1ccc(C#N)cn1 [Example 251, (2S)-2-[1-(2-chloro-6-cyano-phenyl)pyrazolo[3,4-d]pyrimidin-4-yl]oxy-N-(5-cyano-2-pyridyl)-3-[(1R)-2-hydroxy-1-methyl-ethoxy]propanamide]  350 nM
6. C[C@H](CO)OC[C@H](Oc1ncnc2c1cnn2-c1ccccc1Cl)C(=O)Nc1ccc(C#N)cn1 [Example 252, (2S)-2-[1-(2-chlorophenyl)pyrazolo[3,4-d]pyrimidin-4-yl]oxy-N-(5-cyano-2-pyridyl)-3-[(1R)-2-hydroxy-1-methyl-ethoxy]propanamide]  450 nM
7. C[C@H](CO)OC[C@H](Oc1ncnc2c1cnn2-c1ccccc1Cl)C(=O)Nc1ccc(F)cn1 [Example 245, (2S)-2-[1-(2-chlorophenyl)pyrazolo[3,4-d]pyrimidin-4-yl]oxy-N-(5-fluoro-2-pyridyl)-3-[(1R)-2-hydroxy-1-methyl-ethoxy]propanamide]  470 nM
8. O=C(Nc1ccc(F)cn1)[C@H](CN1CC(O)C1)Oc1ncnc2c1cnn2-c1ncccc1Cl [Example 243, (2S)-2-[1-(3-chloro-2-pyridyl)pyrazolo[3,4-d]pyrimidin-4-yl]oxy-N-(5-fluoro-2-pyridyl)-3-(3-hydroxyazetidin-1-yl)propanamide]  570 nM
9. Cc1cnc(NC(=O)[C@H](CO[C@H](C)CO)Oc2ncnc3c2cnn3-c2ccccc2Cl)cn1 [Example 247, (2S)-2-[1-(2-chlorophenyl)pyrazolo[3,4-d]pyrimidin-4-yl]oxy-3-[(1R)-2-hydroxy-1-methyl-ethoxy]-N-(5-methylpyrazin-2-yl)propanamide]  590 nM
10. Cc1cnc(NC(=O)[C@H](CN2CC(O)C2)Oc2ncnc3c2cnn3-c2ncccc2Cl)s1 [Example 249, (2S)-2-[1-(3-chloro-2-pyridyl)pyrazolo[3,4-d]pyrimidin-4-yl]oxy-3-(3-hydroxyazetidin-1-yl)-N-(5-methylthiazol-2-yl)propanamide]  590 nM
11. O=C(Nc1ccc(F)cn1)[C@H](COCCO)Oc1ncnc2c1cnn2-c1ccccc1Cl [Example 248, (2S)-2-[1-(2-chlorophenyl)pyrazolo[3,4-d]pyrimidin-4-yl]oxy-N-(5-fluoro-2-pyridyl)-3-(2-hydroxyethoxy)propanamide]  640 nM
